Reference: PubChem BioAssay (NCI)
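Tested at 5 concentrations; 48 h exposure; 96-well plates; endpoints linearly interpolated, else capped at highest concentration. The concentration for 50% growth inhibition is given as GI50. Definition used: TGI = concentration required for complete inhibition of growth.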

Columns and labels:
Test in all cases: DTP human tumour cell line panel, 48 h
[1] = system: MOLT-4 leukemia
[2] = system: NCI-H226 lung
[3] = system: NCI-H23 lung
[4] = system: NCI-H460 lung
[5] = system: OVCAR-3 ovarian
[6] = system: SK-OV-3 ovarian
[7] = system: SNB-19 CNS
[8] = system: SR leukemia
[9] = system: TK-10 renal
[10] = system: UACC-62 melanoma

Row | SMILES | GI50 [1] [µM] | TGI [1] [µM] | GI50 [2] [µM] | TGI [2] [µM] | GI50 [3] [µM] | TGI [3] [µM] | GI50 [4] [µM] | TGI [4] [µM] | GI50 [5] [µM] | TGI [5] [µM] | GI50 [6] [µM] | TGI [6] [µM] | GI50 [7] [µM] | TGI [7] [µM] | GI50 [8] [µM] | TGI [8] [µM] | GI50 [9] [µM] | TGI [9] [µM] | GI50 [10] [µM] | TGI [10] [µM]
1 | C[C@@H]1CC[C@H]2[C@@H](C)C(O)O[C@@H]3O[C@]4(C)CC[C@@H]1[C@]32OO4 (some centres undefined) | 0.34 | 10.5 | 1.56 | 40.9 | 0.442 | 10.7 | 1.33 | 15 | 0.431 | 15.6 | 11.8 | > 60.3 | 3.39 | > 72.6 | 0.199 | 0.898 | 0.854 | 9.64 | 0.56 | > 76.9
2 | O=C1OC(CC(=O)c2ccc(F)cc2)C(Cl)=C1Cl (centres undefined) |  | > 100 |  | 33.8 |  | 93.5 |  | 52.2 |  | 38.7 |  | > 100 |  | 47 |  | 79 |  | 91.1 |  | 32.2
3 | N#CCCN(CCC#N)c1ccc(/C=C(/NC(=O)c2cc([N+](=O)[O-])ccc2Cl)C(=O)N=[N+]=[N-])cc1 |  | > 100 |  | > 100 |  | > 100 |  | > 100 |  | > 100 |  | > 100 |  | > 100 |  | > 100 |  | > 100 |  | > 100
4 | C[C@H]1CCC/C=C/C2CC(OC(=O)CN(C)C)CC2C(OC(=O)CN(C)C)/C=C/C(=O)O1 (some centres undefined) | 0.357 | 5.44 | 0.133 | 0.44 | 0.359 | 1.92 | 1.09 | 31.2 | 0.428 | 3.2 | 0.237 |  | 2.76 | > 100 | 0.38 | 10.1 | 0.318 | 17.9 | 0.443 | > 65.4
5 | Nc1n[n+]([O-])c2cc([N+](=O)[O-])ccc2[n+]1[O-] |  | 4.16 |  | 30.7 |  | 35.7 |  | 16.1 |  | 15.2 |  | 61.2 |  | 31.1 |  | 18.4 |  | 86.1 |  | 9.84
6 | COc1ccc(-c2nn(-c3cccc(Cl)c3)cc2/C=C2\NC(=S)N(c3ccc(Cl)cc3)C2=O)cc1 | 4.47 | 10.7 | 4.03 | 9.36 | 3.78 | 9.23 | 4.7 | 18.4 | 5.54 | 12.9 | 3.77 | 8.22 | 6.54 | > 25 | 3.59 | 7.29 | 6.37 | 16 | 3.29 | 7.64
7 | C[C@@H](O)[C@@H](C)Oc1nc(Nc2ccc(S(=N)(=O)C3CC3)cc2)ncc1C(F)(F)F (some centres undefined) | 0.0255 | 0.0816 | 0.0288 | 0.106 | 0.0322 | 0.318 | 0.0303 | 11.5 | 0.018 | 18.6 | 0.0891 | > 100 | 0.0309 | 43 | < 0.0122 | 0.0475 | 0.0377 | > 45.9 | 0.0249 | 0.0931
